Results from patent US20080287549A1, “METHODS AND MATERIALS FOR CONTROLLING RODENT POPULATIONS” (priority 2007, published 2008).

Tests used:
[1] = Long-term low-dose study: mean food consumption in male and female rats; format: in vivo
Procedure: (§1) Twenty-eight weeks of a two-year study of the effects of low dosages of trans-clomiphene (0 mg/kg/day (control), 0.0125 mg/kg/day, 0.025 mg/kg/day and 0.05 mg/kg/day) on mean body weight and mean food consumption in age-matched male and female rats has been completed. For each group, n=60. Losses in body weight and decreases in food consumption in both male and female treatment groups (compared to control groups) have been observed in every treatment group. As the study has progressed, the losses in body weight and decreases in food consumption have become more pronounced. See Table 2 (M=male; F=female; Mean Body weight is in grams; Mean Food consumption is in grams/animal/day; and dosages are of trans-clomiphene in mg/kg/day).

[2] = Ernst et al.; cited from earlier work
[3] = test system: Serum testosterone; assay: Serum testosterone in male rats after 7 days of treatment (direct RIA); format: in vivo; conditions: 7 consecutive days; for Average Decrease in Serum Testosterone Level (%): pre- vs post-treatment
Procedure: (§2) Male rats were given increasing doses (control=0 mg/kg, low=0.2 mg/kg, medium=2 mg/kg and high=20 mg/kg) of clomiphene, trans-clomiphene or cis-clomiphene for 7 consecutive days. Treatment was followed by a 7-day washout period. Serum testosterone levels and body weight were tested pre-treatment and post-treatment. Serum testosterone levels were analyzed by direct radioimmunoassay (RIA).
(§3) There were significant and unexpected decreases in serum testosterone and body weight among all treatment groups. […] There was a significant loss in both body weight and total serum testosterone with clomiphene that was dose-dependent.

[4] = Body weight in male rats after 7 days of treatment; format: in vivo; conditions: 7 consecutive days; for Average Loss of Body Weight: pre- vs post-treatment
Procedure: as §2, §3

[5] = in vivo; cited from earlier work
[6] = Long-term low-dose study: mean body weight in male and female rats; format: in vivo
Procedure: as §1

[7] = female rats, 0.0125 mg/kg/day, Week 2
[8] = female rats, 0.0125 mg/kg/day, Week 6
[9] = female rats, 0.0125 mg/kg/day, Week 10
[10] = female rats, 0.0125 mg/kg/day, Week 14
[11] = female rats, 0.0125 mg/kg/day, Week 18
[12] = female rats, 0.0125 mg/kg/day, Week 22
[13] = female rats, 0.0125 mg/kg/day, Week 26
[14] = female rats, 0.0125 mg/kg/day, Week 28
[15] = female rats, 0.025 mg/kg/day, Week 2
[16] = female rats, 0.025 mg/kg/day, Week 6
[17] = female rats, 0.025 mg/kg/day, Week 10
[18] = female rats, 0.025 mg/kg/day, Week 14
[19] = female rats, 0.025 mg/kg/day, Week 18
[20] = female rats, 0.025 mg/kg/day, Week 22
[21] = female rats, 0.025 mg/kg/day, Week 26
[22] = female rats, 0.025 mg/kg/day, Week 28
[23] = female rats, 0.05 mg/kg/day, Week 2
[24] = female rats, 0.05 mg/kg/day, Week 6
[25] = female rats, 0.05 mg/kg/day, Week 10
[26] = female rats, 0.05 mg/kg/day, Week 14
[27] = female rats, 0.05 mg/kg/day, Week 18
[28] = female rats, 0.05 mg/kg/day, Week 22
[29] = female rats, 0.05 mg/kg/day, Week 26
[30] = female rats, 0.05 mg/kg/day, Week 28
[31] = male rats, 0.0125 mg/kg/day, Week 2
[32] = male rats, 0.0125 mg/kg/day, Week 6
[33] = male rats, 0.0125 mg/kg/day, Week 10
[34] = male rats, 0.0125 mg/kg/day, Week 14
[35] = male rats, 0.0125 mg/kg/day, Week 18
[36] = male rats, 0.0125 mg/kg/day, Week 22
[37] = male rats, 0.0125 mg/kg/day, Week 26
[38] = male rats, 0.0125 mg/kg/day, Week 28
[39] = male rats, 0.025 mg/kg/day, Week 2
[40] = male rats, 0.025 mg/kg/day, Week 6
[41] = male rats, 0.025 mg/kg/day, Week 10
[42] = male rats, 0.025 mg/kg/day, Week 14
[43] = male rats, 0.025 mg/kg/day, Week 18
[44] = male rats, 0.025 mg/kg/day, Week 22
[45] = male rats, 0.025 mg/kg/day, Week 26
[46] = male rats, 0.025 mg/kg/day, Week 28
[47] = male rats, 0.05 mg/kg/day, Week 2
[48] = male rats, 0.05 mg/kg/day, Week 6
[49] = male rats, 0.05 mg/kg/day, Week 10
[50] = male rats, 0.05 mg/kg/day, Week 14
[51] = male rats, 0.05 mg/kg/day, Week 18
[52] = male rats, 0.05 mg/kg/day, Week 22
[53] = male rats, 0.05 mg/kg/day, Week 26
[54] = male rats, 0.05 mg/kg/day, Week 28

## CCN(CC)CCOc1ccc(/C(=C(\Cl)c2ccccc2)c2ccccc2)cc1 [Trans-clomiphene, trans-clomiphene]
[1]; [7]
  Mean Food consumption: 17.1 grams/animal/day
[1]; [8]
  Mean Food consumption: 17.4 grams/animal/day
[1]; [9]
  Mean Food consumption: 17.5 grams/animal/day
[1]; [10]
  Mean Food consumption: 20.0 grams/animal/day
[1]; [11]
  Mean Food consumption: 17.5 grams/animal/day
[1]; [12]
  Mean Food consumption: 17.8 grams/animal/day
[1]; [13]
  Mean Food consumption: 16.9 grams/animal/day
[1]; [14]
  Mean Food consumption: 16.4 grams/animal/day
[1]; [15]
  Mean Food consumption: 17.3 grams/animal/day
[1]; [16]
  Mean Food consumption: 16.7 grams/animal/day
[1]; [17]
  Mean Food consumption: 17.8 grams/animal/day
[1]; [18]
  Mean Food consumption: 18.2 grams/animal/day
[1]; [19]
  Mean Food consumption: 16.1 grams/animal/day
[1]; [20]
  Mean Food consumption: 17.0 grams/animal/day
[1]; [21]
  Mean Food consumption: 16.3 grams/animal/day
[1]; [22]
  Mean Food consumption: 15.4 grams/animal/day
[1]; [23]
  Mean Food consumption: 16.0 grams/animal/day
[1]; [24]
  Mean Food consumption: 15.8 grams/animal/day
[1]; [25]
  Mean Food consumption: 17.4 grams/animal/day
[1]; [26]
  Mean Food consumption: 19.0 grams/animal/day
[1]; [27]
  Mean Food consumption: 16.4 grams/animal/day
[1]; [28]
  Mean Food consumption: 17.5 grams/animal/day
[1]; [29]
  Mean Food consumption: 16.3 grams/animal/day
[1]; [30]
  Mean Food consumption: 15.3 grams/animal/day
[1]; male and female rats, 0.0125-0.05 mg/kg/day, twenty-eight weeks
  hypophagic effects: observed even at extremely low concentrations
[1]; [31]
  Mean Food consumption: 23.8 grams/animal/day
[1]; [32]
  Mean Food consumption: 25.1 grams/animal/day
[1]; [33]
  Mean Food consumption: 26.6 grams/animal/day
[1]; [34]
  Mean Food consumption: 26.5 grams/animal/day
[1]; [35]
  Mean Food consumption: 24.3 grams/animal/day
[1]; [36]
  Mean Food consumption: 25.1 grams/animal/day
[1]; [37]
  Mean Food consumption: 23.1 grams/animal/day
[1]; [38]
  Mean Food consumption: 23.6 grams/animal/day
[1]; [39]
  Mean Food consumption: 24.3 grams/animal/day
[1]; [40]
  Mean Food consumption: 23.8 grams/animal/day
[1]; [41]
  Mean Food consumption: 26.9 grams/animal/day
[1]; [42]
  Mean Food consumption: 25.4 grams/animal/day
[1]; [43]
  Mean Food consumption: 23.6 grams/animal/day
[1]; [44]
  Mean Food consumption: 24.0 grams/animal/day
[1]; [45]
  Mean Food consumption: 23.4 grams/animal/day
[1]; [46]
  Mean Food consumption: 22.6 grams/animal/day
[1]; [47]
  Mean Food consumption: 22.0 grams/animal/day
[1]; [48]
  Mean Food consumption: 22.5 grams/animal/day
[1]; [49]
  Mean Food consumption: 23.5 grams/animal/day
[1]; [50]
  Mean Food consumption: 25.9 grams/animal/day
[1]; [51]
  Mean Food consumption: 22.6 grams/animal/day
[1]; [52]
  Mean Food consumption: 23.1 grams/animal/day
[1]; [53]
  Mean Food consumption: 22.4 grams/animal/day
[1]; [54]
  Mean Food consumption: 22.0 grams/animal/day
[2]
  estrogenic / antiestrogenic activity: antiestrogenic
[3]; 0.2-20 mg/kg
  Effect on serum testosterone levels compared to the control group: significantly and statistically lowered serum testosterone levels
[3]; high=20 mg/kg
  Average Decrease in Serum Testosterone Level (%): 73%
[3]; low=0.2 mg/kg
  Average Decrease in Serum Testosterone Level (%): 71.7%
[3]; medium=2 mg/kg
  Average Decrease in Serum Testosterone Level (%): 68.3%
[4]; 0.2-20 mg/kg
  Effect on body weight compared to the control group: caused a loss in body weight
[4]; high=20 mg/kg
  Average Loss of Body Weight: 35 g
[4]; low=0.2 mg/kg
  Average Loss of Body Weight: 34 g
[4]; medium=2 mg/kg
  Average Loss of Body Weight: 40 g
[5]
  in vivo clearance: rapidly cleared
[6]; [7]
  Mean Body weight: 225.1 grams
[6]; [8]
  Mean Body weight: 269.0 grams
[6]; [9]
  Mean Body weight: 280.3 grams
[6]; [10]
  Mean Body weight: 291.8 grams
[6]; [11]
  Mean Body weight: 300.8 grams
[6]; [12]
  Mean Body weight: 309.0 grams
[6]; [13]
  Mean Body weight: 318.7 grams
[6]; [14]
  Mean Body weight: 318.4 grams
[6]; [15]
  Mean Body weight: 220.4 grams
[6]; [16]
  Mean Body weight: 257.3 grams
[6]; [17]
  Mean Body weight: 271.8 grams
[6]; [18]
  Mean Body weight: 281.4 grams
[6]; [19]
  Mean Body weight: 286.9 grams
[6]; [20]
  Mean Body weight: 294.9 grams
[6]; [21]
  Mean Body weight: 305.5 grams
[6]; [22]
  Mean Body weight: 304.4 grams
[6]; [23]
  Mean Body weight: 214.4 grams
[6]; [24]
  Mean Body weight: 245.1 grams
[6]; [25]
  Mean Body weight: 260.3 grams
[6]; [26]
  Mean Body weight: 272.3 grams
[6]; [27]
  Mean Body weight: 278.9 grams
[6]; [28]
  Mean Body weight: 287.7 grams
[6]; [29]
  Mean Body weight: 296.9 grams
[6]; [30]
  Mean Body weight: 298.3 grams
[6]; [31]
  Mean Body weight: 355.5 grams
[6]; [32]
  Mean Body weight: 467.0 grams
[6]; [33]
  Mean Body weight: 519.0 grams
[6]; [34]
  Mean Body weight: 552.1 grams
[6]; [35]
  Mean Body weight: 572.5 grams
[6]; [36]
  Mean Body weight: 597.8 grams
[6]; [37]
  Mean Body weight: 619.6 grams
[6]; [38]
  Mean Body weight: 620.2 grams
[6]; [39]
  Mean Body weight: 347.4 grams
[6]; [40]
  Mean Body weight: 447.8 grams
[6]; [41]
  Mean Body weight: 498.0 grams
[6]; [42]
  Mean Body weight: 527.8 grams
[6]; [43]
  Mean Body weight: 543.3 grams
[6]; [44]
  Mean Body weight: 566.3 grams
[6]; [45]
  Mean Body weight: 590.0 grams
[6]; [46]
  Mean Body weight: 594.2 grams
[6]; [47]
  Mean Body weight: 335.2 grams
[6]; [48]
  Mean Body weight: 414.1 grams
[6]; [49]
  Mean Body weight: 451.7 grams
[6]; [50]
  Mean Body weight: 480.5 grams
[6]; [51]
  Mean Body weight: 496.9 grams
[6]; [52]
  Mean Body weight: 518.8 grams
[6]; [53]
  Mean Body weight: 536.8 grams
[6]; [54]
  Mean Body weight: 542.9 grams
